According to patent US20250381243A1, “HETEROCYCLES AND USES THEREOF” (Kumquat Biosciences Inc., priority 2022, published 2025):
Where two headings read alike, the source gives them in different places.

Tested on: A549 cells
Assay: Cell proliferation assay (CellTiter-Glo), cells with K-Ras G12S mutation
Format: cell-based
Conditions: Homo sapiens, read-out: Inhibition of A549 Cells (IC50)
Protocol: A549 (ATCC CRL-185) and LS123 (ATCC CRL-255) cell lines comprise a G12S mutation and can be used to assess Ras cellular signaling in vitro, e.g., in response to treatment with a compound described herein. A549 culture medium is prepared with RPMI-1640 and 10% heat-inactivated FBS. LS123 culture medium is prepared with RPMI-1640 and 10% heat-inactivated FBS. A CellTiter-Glo (CTG) luminescent based assay (Promega) is used to assess growth of the cells, as a measurement of the ability of the compounds herein to inhibit Ras signaling in the cells. The cells (e.g., 800 per well) are seeded in their respective culture medium in standard tissue culture-treated 384-well format plates (Falcon #08-772-116) or ultra-low attachment surface 384-well format plates (S-Bio #MS-9384WZ). The day after plating, cells are treated with a dilution series (e.g., a 10 point 3-fold dilution series) of the compounds herein (e.g., approximately 40 μl final volume per well). Cell viability can be monitored (e.g., approximately 6 days later) according to the manufacturer's recommended instructions, where CellTiter-Glo reagent is added (e.g., approximately 10 μl), vigorously mixed, covered, and placed on a plate shaker (e.g., approximately for 20 min) to ensure sufficient cell lysis prior to assessment of luminescent signal. The IC50 values are determined using the four parameter fit. The resulting IC50 value is a measurement of the ability of the test compound to reduce cell growth of Ras-driven cells (e.g., tumor cell lines) in vitro and/or in vivo.

Row | Structure (SMILES) | IC50 (≤500 nM) [nM] | IC50 (500 nM to 5 μM (mixed units)) [nM]
1 | CC(C)[C@H]1N(C(=O)n2cnc(C(F)F)n2)C[C@]12CC[C@H](C)N(c1nc(OC[C@@]34CCCN3C[C@H](F)C4)nc3c(F)c(-c4ccc(F)c5sc(N)c(C#N)c45)c(Cl)cc13)C2 (atropisomer, axis not shown; (aS)) [Compound 109, (R)-2-amino-4-(6-chloro-4-((1R,4R,7S)-2-(3-(difluoromethyl)-1H-1,2,4-triazole-1-carbonyl)-1-isopropyl-7-methyl-2,6-diazaspiro[3.5]nonan-6-yl)-8-fluoro-2-(((2R,7aS)-2-fluorotetrahydro-1H-pyrrolizin-7a(5H)-yl)methoxy)quinazolin-7-yl)-7-fluorobenzo[b]thiophene-3-carbonitrile] | ≤ 500 | –
2 | CN(C[C@@H]1CN(C(=O)n2cnc(C#N)n2)[C@@H]1C1CCC1)c1nc(OC[C@@]23CCCN2C[C@H](F)C3)nc2c(F)c(-c3ccc(F)c4sc(N)c(C#N)c34)c(Cl)cc12 (atropisomer, axis not shown; (aS)) [Compound 150, 1-((2R,3R)-3-(((7-((R)-2-amino-3-cyano-7-fluorobenzo[b]thiophen-4-yl)-6-chloro-8-fluoro-2-(((2R,7aS)-2-fluorotetrahydro-1H-pyrrolizin-7a (5H)-yl)methoxy)quinazolin-4-yl)(methyl)amino)methyl)-2-cyclobutylazetidine-1-carbonyl)-1H-1,2,4-triazole-3-carbonitrile] | ≤ 500 | –
3 | CC(C)[C@@H]1[C@H](CN(C)c2nc(OC[C@@]34CCCN3C[C@H](F)C4)nc3c(F)c(-c4ccc(F)c5sc(N)c(C#N)c45)c(Cl)cc23)CN1C(=O)n1cnc(C#N)n1 (atropisomer, axis not shown; (aS)) [Compound 162, 1-((2R,3R)-3-(((7-((R)-2-amino-3-cyano-7-fluorobenzo[b]thiophen-4-yl)-6-chloro-8-fluoro-2-(((2R,7aS)-2-fluorotetrahydro-1H-pyrrolizin-7a (5H)-yl)methoxy)quinazolin-4-yl)(methyl)amino)methyl)-2-isopropylazetidine-1-carbonyl)-1H-1,2,4-triazole-3-carbonitrile] | ≤ 500 | –
4 | CCN(C(=O)n1cnc(Cl)n1)[C@@H]1CCN(c2nc(OC[C@@]34CCCN3C[C@H](F)C4)nc3c(F)c(-c4ccc(F)c5sc(N)c(C#N)c45)c(Cl)cc23)[C@@H]1C (atropisomer, axis not shown; (aS)) [Compound 176, N-((2R,3R)-1-(7-((R)-2-amino-3-cyano-7-fluorobenzo[b]thiophen-4-yl)-6-chloro-8-fluoro-2-(((2R,7aS)-2-fluorotetrahydro-1H-pyrrolizin-7a (5H)-yl)methoxy)quinazolin-4-yl)-2-methylpyrrolidin-3-yl)-3-chloro-N-ethyl-1H-1,2,4-triazole-1-carboxamide] | ≤ 500 | –
5 | C[C@H]1CC[C@]2(CN(C(=O)n3cnc(C(F)F)n3)[C@@H]2C2(C)CC2)CN1c1nc(OC[C@@]23CCCN2C[C@H](F)C3)nc2c(F)c(-c3ccc(F)c4sc(N)c(C#N)c34)c(Cl)cc12 (atropisomer, axis not shown; (aS)) [Compound 178, (R)-2-amino-4-(6-chloro-4-((1R,4R,7S)-2-(3-(difluoromethyl)-1H-1,2,4-triazole-1-carbonyl)-7-methyl-1-(1-methylcyclopropyl)-2,6-diazaspiro[3.5]nonan-6-yl)-8-fluoro-2-(((2R,7aS)-2-fluorotetrahydro-1H-pyrrolizin-7a (5H)-yl)methoxy)quinazolin-7-yl)-7-fluorobenzo[b]thiophene-3-carbonitrile] | ≤ 500 | –
6 | CC1([C@H]2N(C(=O)n3cnc(F)n3)C[C@]23CCCCN(c2nc(OC[C@@]45CCCN4C[C@H](F)C5)nc4c(F)c(-c5ccc(F)c6sc(N)c(C#N)c56)c(Cl)cc24)C3)CC1 (atropisomer, axis not shown; (aS)) [Compound 193, (R)-2-amino-4-(6-chloro-8-fluoro-4-((1R,4R)-2-(3-fluoro-1H-1,2,4-triazole-1-carbonyl)-1-(1-methylcyclopropyl)-2,6-diazaspiro[3.6]decan-6-yl)-2-(((2R,7aS)-2-fluorotetrahydro-1H-pyrrolizin-7a (5H)-yl)methoxy)quinazolin-7-yl)-7-fluorobenzo[b]thiophene-3-carbonitrile] | ≤ 500 | –
7 | C[C@H]1CC[C@]2(CN(C(=O)n3cnc(F)n3)[C@@H]2C2(C(F)F)CC2)CN1c1nc(OC[C@@]23CCCN2C[C@H](F)C3)nc2c(F)c(-c3ccc(F)c4sc(N)c(C#N)c34)c(Cl)cc12 (atropisomer, axis not shown; (aS)) [Compound 194, (R)-2-amino-4-(6-chloro-4-((1S,4R,7S)-1-(1-(difluoromethyl)cyclopropyl)-2-(3-fluoro-1H-1,2,4-triazole-1-carbonyl)-7-methyl-2,6-diazaspiro[3.5]nonan-6-yl)-8-fluoro-2-(((2R,7aS)-2-fluorotetrahydro-1H-pyrrolizin-7a(5H)-yl)methoxy)quinazolin-7-yl)-7-fluorobenzo[b]thiophene-3-carbonitrile] | ≤ 500 | –
8 | CC1CC(N(C)C(=O)n2cnc(Cl)n2)CN1c1nc(OC[C@@]23CCCN2C[C@H](F)C3)nc2c(F)c(-c3ccc(F)c4sc(N)c(C#N)c34)c(Cl)cc12 (single isomer, unassigned) [Compound 105] | – | 500 to 5000
9 | CC(C)C1N(C(=O)n2cnc(Cl)n2)CC12CC(CC#N)CN(c1nc(OC[C@@]34CCCN3C[C@H](F)C4)nc3c(F)c(-c4ccc(F)c5sc(N)c(C#N)c45)c(Cl)cc13)C2 (single isomer, unassigned) [Compound 117] | ≤ 500 | –
10 | CC1C2C(CCN2c2nc(OC[C@@]34CCCN3C[C@H](F)C4)nc3c(F)c(-c4ccc(F)c5sc(N)c(C#N)c45)c(Cl)cc23)CN1C(=O)n1cncn1 (single isomer, unassigned) [Compound 121] | – | 500 to 5000
11 | CCN(C(=O)n1cnc(Cl)n1)[C@@H]1CCN(c2nc(OC[C@@]34CCCN3C[C@H](F)C4)nc3c(F)c(-c4ccc(F)c5sc(N)c(C#N)c45)c(Cl)cc23)[C@@H]1C (single isomer, unassigned) [Compound 171] | ≤ 500 | –
12 | CN(CC1(C)CCN1C(=O)n1cnc(Cl)n1)c1nc(OC[C@@]23CCCN2C[C@H](F)C3)nc2c(F)c(-c3ccc(F)c4sc(N)c(C#N)c34)c(Cl)cc12 (single isomer, unassigned) [Compound 183] | – | 500 to 5000
13 | CN(C(=O)n1cnc(Cl)n1)C1CCN(c2nc(OC[C@@]34CCCN3C[C@H](F)C4)nc3c(F)c(-c4ccc(F)c5sc(N)c(C#N)c45)c(Cl)cc23)C1(C)C (single isomer, unassigned) [Compound 198] | ≤ 500 | –
14 | N#Cc1c(N)sc2c(F)ccc(-c3c(Cl)cc4c(N5CCC6(C5)CN(C(=O)n5cncn5)C6C5CC5)nc(OC[C@@]56CCCN5C[C@H](F)C6)nc4c3F)c12 (single isomer, unassigned) [Compound 203] | ≤ 500 | –
15 | CC(C)[C@H]1N(C(=O)n2cncn2)C[C@@]12CN(c1nc(OC[C@@]34CCCN3C[C@H](F)C4)nc3c(F)c(-c4ccc(F)c5sc(N)c(C#N)c45)c(Cl)cc13)CCO2 [Compound 104, 2-amino-4-(6-chloro-8-fluoro-2-(((2R,7aS)-2-fluorotetrahydro-1H-pyrrolizin-7a(5H)-yl)methoxy)-4-((1R,4S)-1-isopropyl-2-(1H-1,2,4-triazole-1-carbonyl)-5-oxa-2,8-diazaspiro[3.5]nonan-8-yl)quinazolin-7-yl)-7-fluorobenzo[b]thiophene-3-carbonitrile] | ≤ 500 | –
16 | CN(C[C@@H]1CN(C(=O)n2cnc(F)n2)[C@@H]1C1(CC#N)CC1)c1nc(OC[C@@]23CCCN2C[C@H](F)C3)nc2c(F)c(-c3ccc(F)c4sc(N)c(C#N)c34)c(Cl)cc12 [Compound 108, 2-amino-4-(6-chloro-4-((((2S,3R)-2-(1-(cyanomethyl)cyclopropyl)-1-(3-fluoro-1H-1,2,4-triazole-1-carbonyl)azetidin-3-yl)methyl)(methyl)amino)-8-fluoro-2-(((2R,7aS)-2-fluorotetrahydro-1H-pyrrolizin-7a(5H)-yl)methoxy)quinazolin-7-yl)-7-fluorobenzo[b]thiophene-3-carbonitrile] | ≤ 500 | –
17 | C[C@@H]1[C@H](N(C)C(=O)n2cnc(F)n2)CCN1c1nc(OC[C@@]23CCCN2C[C@H](F)C3)nc2c(F)c(-c3ccc(F)c4sc(N)c(C#N)c34)c(Cl)cc12 [Compound 111, N-((2R,3R)-1-(7-(2-amino-3-cyano-7-fluorobenzo[b]thiophen-4-yl)-6-chloro-8-fluoro-2-(((2R,7aS)-2-fluorotetrahydro-1H-pyrrolizin-7a(5H)-yl)methoxy)quinazolin-4-yl)-2-methylpyrrolidin-3-yl)-3-fluoro-N-methyl-1H-1,2,4-triazole-1-carboxamide] | ≤ 500 | –
18 | CCC1N(C(=O)n2cncn2)CC12CN(c1nc(OC[C@@]34CCCN3C[C@H](F)C4)nc3c(F)c(-c4ccc(F)c5sc(N)c(C#N)c45)c(Cl)cc13)CCO2 (stereo partly drawn) [Compound 112, 2-amino-4-(6-chloro-4-(1-ethyl-2-(1H-1,2,4-triazole-1-carbonyl)-5-oxa-2,8-diazaspiro[3.5]nonan-8-yl)-8-fluoro-2-(((2R,7aS)-2-fluorotetrahydro-1H-pyrrolizin-7a(5H)-yl)methoxy)quinazolin-7-yl)-7-fluorobenzo[b]thiophene-3-carbonitrile] | ≤ 500 | –
